The test can be described thus: Inhibition concentration against C6 […] cells by the 3-(4,5-dimethylthiazol-2-yl)-2,5-diphenyltetrazoliumbromide (MTT) method. It counts as functional, cell-based.

Usually IC50 stands for the midpoint of a concentration-inhibition curve.

CISPLATIN: the IC50 stood at 5.27 µM.

These data come from ChEMBL document CHEMBL1142846, “Synthesis and cytotoxic activity of platinum complex immobilized by branched polyethylene glycol” (Bioorg Med Chem Lett, 2005).
